pIC50: −log10 of the molar value. Where two headings read alike, the source gives them in different places.
How the values were obtained:
[1] = molecular target: IDH1-R132C recombinant protein (Homo sapiens (Human), UniProt O75874, R132C); test: IDH1-R132C enzymatic assay (inhibition of NADPH consumption, diaphorase/resazurin readout); assay type: biochemical; settings: read-out: Enzyme IDH1 R132C IC50 (Range)
Experimental: (§1) Assays were performed in a 384-well black plate. An aliquot of 250 nL of compound was incubated with 10 μL of 30 nM IDH1-R132H or 10 nM IDH1-R132C recombinant protein in assay buffer (50 mM Tris pH=7.5, 150 mM NaCl, 5 mM MgCl2, 0.1% (w/v) Bovine Serum Albumin, and 0.01% Triton X-100) in each well at 25° C. for 15 minutes. After the plate was centrifuged briefly, an aliquot of 10 μL of 2 mM α-ketoglutarate and 20 μM NADPH solution prepared in assay buffer was then added to each well and the reaction was maintained at 25° C. for 45 minutes. An aliquot of 10 μL of diaphorase solution (0.15 U/mL diaphorase and 30 µM Resazurin in assay buffer) was added to each well. The plate was maintained at 25° C. for 15 minutes and then read on a plate reader with excitation and emission wavelengths at 535 nm and 590 nm, respectively. The IC50 of a given compound was calculated by fitting the dose response curve of inhibition of NADPH consumption at a given concentration with the four parameter logistic equation.

[2] = tested on: HCT116 isogenic IDH1-R132H mutant cells; test: Cellular 2-HG assay using HCT116 mutant IDH1 cells (R132H), RapidFire mass spectrometry; assay type: cell-based; settings: Homo sapiens, read-out: HCT116 IDH1 R132H IC50 (Range)
Experimental: (§2) Example 106—Cellular 2-HG assay using HCT116 mutant IDH1 cells
(§3) HCT116 isogenic IDH1-R132H and IDH1-R132C mutant cells were cultured in growth media (McCoy's 5 A, 10% fetal bovine serum, 1× antibiotic-antimycotic solution and 0.3 mg/mL G418) in 5% CO2 in an incubator at 37° C. To prepare the assay, cells were trypsinized and resuspended in assay media (McCoy's 5 A with no L-glutamine, 10% fetal bovine serum, 1× antibiotic-antimycotic solution and 0.3 mg/mL G418). An aliquot of 10,000 cells/100 μL was transferred to each well of a clear 96-well tissue culture plate. The cells were incubated in 5% CO2 at 37° C. in an incubator overnight to allow for proper cell attachment. An aliquot of 50 μL of compound containing assay media were then added to each well and the assay plate was kept in 5% CO2 at 37° C. in an incubator for 24 hours. The media was then removed from each well and 150 μL of a methanol/water mixture (80/20 v/v) was added to each well. The plates were kept at −80° C. freezer overnight to allow for complete cell lysis. An aliquot of 125 μL of extracted supernatant was analyzed by RapidFire high-throughout-mass spectrometry (Agilent) to determine the cellular 2-HG level. The IC50 of a given compound was calculated by fitting the dose response curve of cellular 2-HG inhibition at a given concentration with the four parameter logistic equation.

[3] = molecular target: IDH1-R132H recombinant protein (Homo sapiens (Human), UniProt O75874, R132H); test: IDH1-R132H enzymatic assay (inhibition of NADPH consumption, diaphorase/resazurin readout); assay type: biochemical; settings: read-out: Enzyme IDH1 R132H IC50 (Range)
Experimental: as §1

[4] = tested on: HCT116 isogenic IDH1-R132C mutant cells; test: Cellular 2-HG assay using HCT116 mutant IDH1 cells (R132C), RapidFire mass spectrometry; assay type: cell-based; settings: Homo sapiens, read-out: HCT116 IDH1 R132C IC50 (Range)
Experimental: as §2, §3

[5] = HCT-116, cellular 2-HG level, HCT116 IDH1-R132H cells, 24 hours
[6] = HCT-116, cellular 2-HG level, HCT116 IDH1-R132C cells, 24 hours

Sequence of IDH1-R132H recombinant protein (O75874 whole entry R132H): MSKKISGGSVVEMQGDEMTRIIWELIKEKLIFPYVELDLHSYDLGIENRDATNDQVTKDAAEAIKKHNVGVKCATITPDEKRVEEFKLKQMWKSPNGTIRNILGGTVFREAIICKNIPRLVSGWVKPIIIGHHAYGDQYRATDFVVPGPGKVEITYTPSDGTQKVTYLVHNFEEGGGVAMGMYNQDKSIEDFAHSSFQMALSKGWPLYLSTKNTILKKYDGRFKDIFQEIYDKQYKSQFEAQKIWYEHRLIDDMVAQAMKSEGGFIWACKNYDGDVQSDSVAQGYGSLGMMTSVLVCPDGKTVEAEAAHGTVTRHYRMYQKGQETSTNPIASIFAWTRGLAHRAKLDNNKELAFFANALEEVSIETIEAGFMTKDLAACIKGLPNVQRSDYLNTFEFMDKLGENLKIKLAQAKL
Sequence of IDH1-R132C recombinant protein (O75874 whole entry R132C): as the sequence (O75874 whole entry R132H) above, with H132C counted along it

SMILES	pIC50 [1]	pIC50 [2, 5]	pIC50 [3]	pIC50 [4, 6]	pIC50 ([2]; HCT-116, 24 h)	pIC50 ([4]; HCT-116, 24 h)
C[C@H](Nc1nccc(N2CCCS2(=O)=O)n1)c1cc2cc(Cl)ccc2[nH]c1=O [Compound I-12, (S)-6-Chloro-3-(1-((4-(1,1-dioxidoisothiazolidin-2-yl)pyrimidin-2-yl)amino)ethyl)quinolin-2(1H)-one]	5.00 to 6.00	6.00 to 7.00	6.00 to 7.00	6.00 to 7.00		
CC(Nc1nccc(N(C(C)C)S(C)(=O)=O)n1)c1cc2cc(Cl)ccc2[nH]c1=O (centres unmarked) [Compound I-20]	6.00 to 7.00	6.00 to 7.00	6.00 to 7.00	6.00 to 7.00		
COC(=O)Nc1ccnc(N[C@@H](C)c2cc3cc(Cl)ccc3[nH]c2=O)n1 [Compound I-22, (S)-Methyl (2-((1-(6-chloro-2-oxo-1,2-dihydroquinolin-3-yl)ethyl)amino)pyrimidin-4-yl) carbamate]	6.00 to 7.00	> 7.00	> 7.00	> 7.00		
CC(C)OC(=O)Nc1ccnc(N[C@@H](C)c2cc3cc(Cl)ccc3[nH]c2=O)n1 [Compound I-23, (S)-Isopropyl (2-((1-(6-chloro-2-oxo-1,2-dihydroquinolin-3-yl)ethyl)amino)pyrimidin-4-yl)carbamate]		6.00 to 7.00	5.00 to 6.00	6.00 to 7.00		
C[C@H](Nc1ncc(C#N)c(N)n1)c1cc2cc(Cl)ccc2[nH]c1=O [Compound I-37]		6.00 to 7.00	6.00 to 7.00	5.00 to 6.00		
C[C@H](Nc1ncc(C#N)c(C2CC2)n1)c1cc2cc(Cl)ccc2[nH]c1=O [Compound I-40, (S)-2-((1-(6-Chloro-2-oxo-1,2-dihydroquinolin-3-yl)ethyl)amino)-4-cyclopropylpyrimidine-5-carbonitrile]		5.00 to 6.00	> 7.00	6.00 to 7.00		
CC(C)[C@H]1COC(=O)N1c1ccnc(N[C@@H](C)c2cc3cc(Cl)ccc3[nH]c2=O)n1 [Compound I-42, (S)-3-(2-(((S)-1-(6-Chloro-2-oxo-1,2-dihydroquinolin-3-yl)ethyl)amino)pyrimidin-4-yl)-4-isopropyloxazolidin-2-one]	> 7.00		> 7.00	> 7.00		
Cc1c(-c2ccnc(N[C@@H](C)c3cc4cc(Cl)ccc4[nH]c3=O)n2)cnn1C [Compound I-74]		6.00 to 7.00	6.00 to 7.00	6.00 to 7.00		
C[C@H](Nc1nccc(-c2ccnn2C2CCCCO2)n1)c1cc2cc(Cl)ccc2[nH]c1=O (some centres unmarked) [Compound I-79]		5.00 to 6.00	> 7.00	5.00 to 6.00		
Cc1cscc1-c1ccnc(N[C@@H](C)c2cc3cc(Cl)ccc3[nH]c2=O)n1 [Compound I-80]		6.00 to 7.00	> 7.00	6.00 to 7.00		
C[C@H](Nc1nccc(-c2cccn2C)n1)c1cc2cc(Cl)ccc2[nH]c1=O [Compound I-81]		6.00 to 7.00	> 7.00	6.00 to 7.00		
C[C@H](Nc1nccc(N2CCN(C)C2=O)n1)c1cc2cc(Cl)ccc2[nH]c1=O [Compound I-124]		6.00 to 7.00	6.00 to 7.00	6.00 to 7.00		
C[C@H](Nc1nccc(N2CCCC2=O)n1)c1cc2cc(Cl)ccc2[nH]c1=O [Compound I-138]	6.00 to 7.00		> 7.00			
COc1nc(N[C@H](C)c2cc3cc(Cl)c(F)cc3[nH]c2=O)ncc1C#N [Compound I-141, (R)-2-((1-(6-chloro-7-fluoro-2-oxo-1,2-dihydroquinolin-3-yl)ethyl)amino)-4-methoxypyrimidine-5-carbonitrile]	< 5.00		< 5.00			
COc1cc2[nH]c(=O)c([C@@H](C)Nc3ncc(C#N)c(OC)n3)cc2cc1Cl [Compound I-144, (R)-2-((1-(6-Chloro-7-methoxy-2-oxo-1,2-dihydroquinolin-3-yl)ethyl)amino)-4-methoxypyrimidine-5-carbonitrile]	5.00 to 6.00		6.00 to 7.00			
COc1cc2[nH]c(=O)c([C@H](C)Nc3nccc(N4CCOC4=O)n3)cc2cc1Cl [Compound I-147]		> 7.00	> 7.00	> 7.00		
COc1nc(NC(C)c2cc3cc(Cl)c(OCc4ccccn4)cc3[nH]c2=O)ncc1C#N (centres unmarked) [Compound I-150]	> 7.00		> 7.00			
Cc1nc(N[C@@H](C)c2cc3cc(Cl)c(OCc4ccccn4)cc3[nH]c2=O)ncc1C#N [Compound I-153]	> 7.00		> 7.00	> 7.00		
COc1nc(N[C@@H](C)c2nc3cc(Cl)ccc3[nH]c2=O)ncc1C#N [Compound I-156, (S)-2-((1-(7-Chloro-3-oxo-3,4-dihydroquinoxalin-2-yl)ethyl)amino)-4-methoxy pyrimidine-5-carbonitrile]	6.00 to 7.00				> 7.00	6.00 to 7.00
O=C1OCCN1c1ccnc(NC2(c3cc4cc(Cl)ccc4[nH]c3=O)CC2)n1 [Compound I-168]	5.00 to 6.00		6.00 to 7.00			
COc1nc(NC2(c3cc4cc(Cl)ccc4[nH]c3=O)CC2)ncc1C#N [Compound I-169, 2-((1-(6-Chloro-2-oxo-1,2-dihydroquinolin-3-yl)cyclopropyl)amino)-4-methoxypyrimidine-5-carbonitrile]	5.00 to 6.00		6.00 to 7.00			
CC(C)(Nc1nccc(N2CCOC2=O)n1)c1cc2cc(Cl)ccc2[nH]c1=O [Compound I-170]		6.00 to 7.00	6.00 to 7.00	5.00 to 6.00		
COc1nc(NC(C)c2cc3cc(Cl)c(OCC4CC(F)(F)C4)cc3[nH]c2=O)ncc1C#N (centres unmarked) [Compound I-172, 2-((1-(6-chloro-7-((3,3-difluorocyclobutyl)methoxy)-2-oxo-1,2-dihydroquinolin-3-yl)ethyl)amino)-4-methoxypyrimidine-5-carbonitrile]	6.00 to 7.00		> 7.00			
CC(C)n1cncc1-c1ccnc(N[C@@H](C)c2cc3cc(Cl)ccc3n(C)c2=O)n1 [Compound I-173, (S)-6-chloro-3-(1-((4-(1-isopropyl-1H-imidazol-5-yl)pyrimidin-2-yl)amino)ethyl)-1-methylquinolin-2(1H)-one]	> 7.00		> 7.00			
COc1nc(N[C@H](C)c2cc3cc(Cl)ccc3[nH]c2=O)ncc1C#N [Compound I-174]	5.00 to 6.00		5.00 to 6.00			
COc1nc(N[C@@H](C)c2cc3cc(Cl)c(OC(C)C)cc3[nH]c2=O)ncc1C#N [Compound I-175, (S)-2-((1-(6-chloro-7-isopropoxy-2-oxo-1,2-dihydroquinolin-3-yl)ethyl)amino)-4-methoxypyrimidine-5-carbonitrile]	> 7.00		> 7.00			
COc1nc(N[C@@H](C)c2cc3cc(Cl)c(C4CC4)cc3[nH]c2=O)ncc1C#N [Compound I-176, (S)-2-((1-(6-chloro-7-cyclopropyl-2-oxo-1,2-dihydroquinolin-3-yl)ethyl)amino)-4-methoxypyrimidine-5-carbonitrile]	6.00 to 7.00		> 7.00			
COc1nc(N[C@@H](C)c2cc3ncccc3[nH]c2=O)ncc1C#N [Compound I-177, (S)—4-methoxy-2-((1-(2-oxo-1,2-dihydro-1,5-naphthyridin-3-yl)ethyl)amino)pyrimidine-5-carbonitrile]	< 5.00		5.00 to 6.00			
C[C@H](Nc1ncc(C#N)c(=O)[nH]1)c1cc2cc(Cl)ccc2[nH]c1=O [Compound I-178, (S)-2-((1-(6-chloro-2-oxo-1,2-dihydroquinolin-3-yl)ethyl)amino)-6-oxo-1,6-dihydropyrimidine-5-carbonitrile]	5.00 to 6.00		> 7.00			
C[C@H](Nc1nccc(-n2nnnc2C2CC2)n1)c1cc2cc(Cl)ccc2[nH]c1=O [Compound I-183, (S)-6-chloro-3-(1-((4-(5-cyclopropyl-1H-tetrazol-1-yl)pyrimidin-2-yl)amino)ethyl)quinolin-2(1H)-one]	> 7.00		> 7.00	6.00 to 7.00		

Reference: patent publication US10280150B2 (FORMA TM2, Inc., priority 2014, dated 2019)
